Results reported in PubChem BioAssay (NCI).
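Exposure lasted 48 hours, with cells grown in 96-well plates and compounds tested at five concentrations. At the TGI there is no net growth.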

Assays:
Assay in all cases: NCI tumour cell line growth inhibition, 48 h
[1] = system: ACHN renal
[2] = system: BT-549 breast
[3] = system: COLO 205 colon
[4] = system: EKVX NSCLC
[5] = system: HCC-2998 colon
[6] = system: HCT-15 colon
[7] = system: HS 578T breast
[8] = system: M14 melanoma
[9] = system: MALME-3M melanoma
[10] = system: NCI-H23 lung
[11] = system: SF-539 CNS
[12] = system: SNB-75 CNS
[13] = system: SW-620 colon
[14] = system: T-47D breast
[15] = system: U251 CNS
[16] = system: HOP-92 NSCLC
[17] = system: IGROV1 ovarian
[18] = system: NCI/ADR-RES ovarian
[19] = system: SR leukemia

Row | SMILES | TGI [1] [µM] | TGI [2] [µM] | TGI [3] [µM] | TGI [4] [µM] | TGI [5] [µM] | TGI [6] [µM] | TGI [7] [µM] | TGI [8] [µM] | TGI [9] [µM] | TGI [10] [µM] | TGI [11] [µM] | TGI [12] [µM] | TGI [13] [µM] | TGI [14] [µM] | TGI [15] [µM] | TGI [16] [µM] | TGI [17] [µM] | TGI [18] [µM] | TGI [19] [µM]
1 | CN(CCC(=O)N1CC(CCl)c2ccc([N+](=O)[O-])cc21)CCC(=O)N1CC(CCl)c2ccc([N+](=O)[O-])cc21 (stereo unspecified) | 2.91 | > 100 | 31.6 | 42.7 | 18.2 | 25.9 | 17.7 | 21.7 | 23.7 | 29.3 | 27.7 | 19 | 29 | > 100 | > 100 | – | – | – | –
2 | O=C1CC(Br)c2c(Br)sc(Br)c21 (stereo unspecified) | 31.6 | 36.7 | 33.9 | 39 | – | 34.6 | > 100 | 29.2 | 38.3 | 32 | 43.7 | 42.4 | 26.5 | 38.3 | 31.1 | 31.5 | 33.5 | > 100 | –
3 | OC1=C2c3ccccc3NC2Oc2cc(F)ccc21 (stereo unspecified) | 46.7 | 48.2 | 27.6 | 22.4 | 32.4 | 37.3 | > 100 | 31.8 | 48.5 | 36 | – | – | 47.9 | 68.1 | 29.6 | 54.1 | > 100 | 47.3 | –
4 | Cc1ccc(-c2c(C#N)c(-c3ccccc3)n(NS(=O)(=O)c3ccc(C)cc3)c(=O)c2C#N)cc1 | > 100 | > 100 | > 100 | > 100 | > 100 | > 100 | – | > 100 | > 100 | – | > 100 | > 100 | > 100 | – | > 100 | > 100 | > 100 | > 100 | –
5 | O=C(/C=C/c1cccc([N+](=O)[O-])c1)N1CCN(CCOC(c2ccccc2)c2ccccc2)CC1 | > 100 | > 100 | 91.9 | > 100 | 55.2 | > 100 | – | > 100 | > 100 | > 100 | – | > 100 | > 100 | > 100 | – | 55.7 | > 100 | > 100 | 32.9
6 | COC(=O)/C(C)=N/NC(=S)SC | > 100 | – | – | > 100 | > 100 | > 100 | > 100 | 57 | – | > 100 | > 100 | – | > 100 | 80.6 | > 100 | > 100 | > 100 | > 100 | > 100
7 | C=CC(C)(C)n1cc(C2=C3OC(=O)C(c4cn(C(C)(C)C=C)c5ccccc45)=C3OC2=O)c2ccccc21 | > 100 | > 100 | > 100 | > 100 | > 100 | > 100 | – | > 100 | > 100 | > 100 | > 100 | > 100 | > 100 | – | > 100 | > 100 | > 100 | > 100 | > 100
8 | CCCCNC(=S)Nc1nc(C(=O)NNC(=S)NCC)cs1 | > 100 | > 100 | > 100 | > 100 | > 100 | > 100 | – | > 100 | > 100 | > 100 | > 100 | > 100 | > 100 | 71.3 | > 100 | – | > 100 | > 100 | > 100
9 | CC1(n2nc(-c3ccccc3)n(-c3ccccc3)c2=O)CSC1 | > 100 | – | > 100 | > 100 | > 100 | > 100 | – | > 100 | – | > 100 | > 100 | > 100 | > 100 | – | > 100 | > 100 | > 100 | – | > 100
10 | CC(=O)OCC(OC(C)=O)C1C[C@H]2O[C@@H]3[C@H](C[C@H]2O1)O[C@@]1(C[C@@H]3C)C[C@H](C)[C@@H]2O[C@]3(C[C@@H]2O1)C[C@H]1O[C@H]2[C@H](C)[C@H]4OC(=O)C[C@H]5CC[C@@H]6OC7[C@H]8O[C@]9(CC[C@H]%10CC(=O)[C@H](CC[C@H]%11C[C@@H](C)C(=O)C(C[C@@H]4O[C@H]2C[C@H]1O3)O%11)O%10)CC8O[C@@H]7[C@@H](O9)[C@H]6O5 (stereo partly specified) | > 1 | 0.411 | 0.0749 | > 1 | – | > 0.219 | 0.00604 | > 1 | – | – | – | > 1 | > 1 | – | > 1 | > 1 | > 1 | > 0.566 | > 1
11 | Cc1cn(C2OC(CO[Si](C)(C)C(C)(C)C)/C(=C\C#N)C2O[Si](C)(C)C(C)(C)C)c(=O)[nH]c1=O (stereo unspecified) | > 100 | – | > 100 | – | – | > 100 | > 100 | > 100 | – | > 100 | 97.1 | > 100 | > 100 | > 100 | > 100 | > 100 | – | > 100 | > 100
12 | Cc1cc(S(=O)(=O)Nc2nc(N)nc(N3N=CCC3C)n2)c(SCC(=O)O)cc1Cl (stereo unspecified) | > 10 | > 10 | > 10 | > 10 | > 10 | > 10 | > 10 | > 10 | > 10 | > 10 | > 10 | > 10 | > 10 | > 10 | > 10 | – | > 10 | > 10 | –
13 | CCOC(=O)/C(C#N)=C/Nc1c(C)n(C)n(-c2ccccc2)c1=O | > 100 | > 100 | > 100 | > 100 | > 100 | > 100 | – | > 100 | > 100 | > 100 | > 100 | – | > 100 | – | > 100 | > 100 | > 100 | > 100 | > 100
14 | Cc1noc(C)c1CCCOC1COc2ccccc2OCCOCCOc2ccccc2OC1 | > 100 | – | > 100 | > 100 | > 100 | > 100 | – | > 100 | > 100 | > 100 | > 100 | > 100 | > 100 | – | > 100 | – | > 100 | – | –
